Data: the Kinase Knowledgebase extract (Sharma et al. 2016)

Key:
EGFR (human) [1] = target: EGFR (human) (UniProt P00533); conditions: a431
EGFR [2] = target: EGFR (UniProt P00533)
ROCK2 = ROCK2 (UniProt O75116); test: Inhibition of COS cell Derived Rho kinase (ROCKII)
EGFR (mouse) [3] = target: EGFR (mouse) (UniProt P00533); conditions: balb/mk cells
EGFR (human) [4] = target: EGFR (human) (UniProt P00533); conditions: a431; remark: listed apart in the source
EGFR (human) [5] = target: EGFR (human) (UniProt P00533)
EGFR (human) [6] = target: EGFR (human) (UniProt P00533); conditions: a431, concentration not given here
EGFR (mouse) [7] = target: EGFR (mouse) (UniProt P00533); conditions: swiss 3t3 fibroblast
CDK2;CDK1 = CDK2;CDK1 (UniProt P24941); test: Cell-Based Assay
EGFR [8] = target: EGFR (UniProt P00533); remark: listed apart in the source
EGFR (human) [9] = target: EGFR (human) (UniProt P00533); conditions: a431; remark: listed apart in the source
EGFR [10] = target: EGFR (UniProt P00533); remark: listed apart in the source
EGFR (human) [11] = target: EGFR (human) (UniProt P00533); conditions: A431
EGFR (murine) [12] = target: EGFR (murine) (UniProt P00533); conditions: f/l-herc
EGFR (murine), sequence (P00533 whole entry, looked up): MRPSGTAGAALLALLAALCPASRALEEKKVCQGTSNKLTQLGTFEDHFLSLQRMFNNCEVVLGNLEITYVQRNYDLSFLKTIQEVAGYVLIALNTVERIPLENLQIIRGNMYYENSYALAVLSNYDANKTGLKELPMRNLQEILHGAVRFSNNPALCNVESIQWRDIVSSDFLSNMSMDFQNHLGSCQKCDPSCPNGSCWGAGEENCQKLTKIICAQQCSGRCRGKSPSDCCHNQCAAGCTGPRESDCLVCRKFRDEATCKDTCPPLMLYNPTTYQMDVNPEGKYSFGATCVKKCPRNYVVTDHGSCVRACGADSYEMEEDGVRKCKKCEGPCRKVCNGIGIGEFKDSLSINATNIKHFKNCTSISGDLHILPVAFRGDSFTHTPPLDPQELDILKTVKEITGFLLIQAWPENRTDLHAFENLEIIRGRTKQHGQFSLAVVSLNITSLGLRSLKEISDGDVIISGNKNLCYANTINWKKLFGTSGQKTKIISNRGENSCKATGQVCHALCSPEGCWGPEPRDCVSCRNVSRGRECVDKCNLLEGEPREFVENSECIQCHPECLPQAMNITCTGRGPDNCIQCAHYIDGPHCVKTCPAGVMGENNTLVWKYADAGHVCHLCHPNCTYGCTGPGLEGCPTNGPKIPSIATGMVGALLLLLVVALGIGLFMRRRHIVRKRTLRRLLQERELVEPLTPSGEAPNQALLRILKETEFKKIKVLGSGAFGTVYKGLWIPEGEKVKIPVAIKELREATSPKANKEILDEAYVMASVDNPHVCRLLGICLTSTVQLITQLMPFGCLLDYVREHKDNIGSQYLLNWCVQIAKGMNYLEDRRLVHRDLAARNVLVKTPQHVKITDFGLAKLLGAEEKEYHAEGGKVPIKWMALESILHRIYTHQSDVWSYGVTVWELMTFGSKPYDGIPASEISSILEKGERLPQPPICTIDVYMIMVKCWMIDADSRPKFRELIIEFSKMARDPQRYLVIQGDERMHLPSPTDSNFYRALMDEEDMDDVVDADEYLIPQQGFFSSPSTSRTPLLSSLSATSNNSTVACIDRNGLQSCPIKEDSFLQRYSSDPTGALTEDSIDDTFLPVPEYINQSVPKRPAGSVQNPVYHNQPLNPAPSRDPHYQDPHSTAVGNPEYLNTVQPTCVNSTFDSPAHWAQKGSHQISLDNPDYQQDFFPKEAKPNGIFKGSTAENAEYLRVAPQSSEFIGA

EGFR [13] = target: EGFR (UniProt P00533); remark: listed apart in the source
MAPK14 [14] = target: MAPK14 (UniProt Q16539); test: p38 Inhibition
MAPK14, sequence (Q16539 whole entry, looked up): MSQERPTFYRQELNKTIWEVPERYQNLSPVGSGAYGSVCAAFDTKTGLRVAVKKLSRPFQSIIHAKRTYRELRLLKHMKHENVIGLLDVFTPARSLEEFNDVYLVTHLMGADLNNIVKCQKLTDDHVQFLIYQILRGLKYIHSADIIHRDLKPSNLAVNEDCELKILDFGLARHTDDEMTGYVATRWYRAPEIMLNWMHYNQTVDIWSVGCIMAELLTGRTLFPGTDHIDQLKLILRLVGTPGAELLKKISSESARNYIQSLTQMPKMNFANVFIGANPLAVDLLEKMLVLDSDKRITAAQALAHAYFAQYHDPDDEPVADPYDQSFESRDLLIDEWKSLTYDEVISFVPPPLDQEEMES

MAPK14 [15] = target: MAPK14 (UniProt Q16539); test: In Vitro p38 Inhibition
EGFR [16] = target: EGFR (UniProt P00533); remark: listed apart in the source
EGFR [17] = target: EGFR (UniProt P00533); remark: listed apart in the source
EGFR (murine) [18] = target: EGFR (murine) (UniProt P00533); conditions: nih3t3
EGFR (human) [19] = target: EGFR (human) (UniProt P00533); conditions: mkn45, concentration not given here
MAPK14 [20] = target: MAPK14 (UniProt Q16539); test: p38-alpha 2 Inhibition
MAPK14 [21] = target: MAPK14 (UniProt Q16539); test: Inhibition of MAPK Activity
MAPK14 (human) [22] = target: MAPK14 (human) (UniProt Q16539); test: p38 --- IL-1 Inhibition (PBMC cells)
MAPK14 (human), sequence (Q16539 whole entry, looked up): as above

MAPK14 (human) [23] = target: MAPK14 (human) (UniProt Q16539); test: p38 --- TNF Inhibition (PBMC cells)
EGFR [24] = target: EGFR (UniProt P00533); remark: listed apart in the source
EGFR [25] = target: EGFR (UniProt P00533); remark: listed apart in the source
EGFR (mouse) [26] = target: EGFR (mouse) (UniProt P00533); conditions: nih3t3/c7
ROCK2 (human) = ROCK2 (human) (UniProt O75116)
MAPK14 [27] = target: MAPK14 (UniProt Q16539); test: p38 Binding Asssy

EGFR, sequence (P00533 whole entry, looked up): as the sequence (P00533 whole entry, looked up) above
EGFR (human), sequence (P00533 whole entry, looked up): as above

SMILES: Brc1cccc(Nc2ncnc3cc4c(ccn4CCCN4CCOCC4)cc23)c1
- IC50 (EGFR (human) [1]): 77 nM

SMILES: COC(=O)c1cc(OCc2cc(OC)ccc2OC)ccc1O
- IC50 (EGFR [2]): > 100000 nM

SMILES: N=C(N)NC[C@H]1CC[C@H](C(=O)NC2=CC=NC3NN=CC23)CC1 (stereo not given in full)
- IC50 (ROCK2): 470 nM

SMILES: C[C@H](NC(=O)[C@H](C)NC(=O)c1ccc(S(=O)(=O)Oc2ccc(/C=C/[N+](=O)[O-])cc2)cc1)C(=O)O
- IC50 (EGFR (mouse) [3]): > 50000 nM

SMILES: C[C@H](NC(=O)c1ccc(S(=O)(=O)Oc2ccc(/C=C/[N+](=O)[O-])cc2)cc1)C(=O)N[C@@H](C)C(=O)OC(C)(C)C
- IC50 (EGFR (human) [4]): 37500 nM

SMILES: CCn1c(=O)c(-c2c(Cl)cccc2Cl)cc2cnc(Nc3ccncc3)nc21
- IC50 (EGFR (human) [5]): 250 nM

SMILES: C=CC(=O)Nc1ccc2ncnc(Nc3ccc(Oc4ccccc4)cc3)c2c1
- activity (EGFR (human) [6]): 0%

SMILES: Cc1ccc2[nH]c(SSc3[nH]c4ccc(C)cc4c3CCC(=O)O)c(CCC(=O)O)c2c1
- IC50 (EGFR (mouse) [7]): > 50000 nM

SMILES: Nc1cc(OCC2CCCCC2)nc(N)n1
- GI50 (CDK2;CDK1): > 100000 nM

SMILES: Cc1cc(C)c(N(C)C)c(C)c1Cc1nc(-c2ccncc2)c(-c2ccc(Cl)cc2)[nH]1
- IC50 (EGFR [8]): 50 nM

SMILES: N#Cc1cnc2ccc(NC(=O)C#CCN3CCSCC3)cc2c1Nc1cccc(Br)c1
- IC50 (EGFR (human) [9]): 100 nM

SMILES: N#C/C(=C\c1ccc(O)c(O)c1)C(=O)NCCCc1ccccc1
- IC50 (EGFR [10]): 700 nM

SMILES: c1ccc(COc2ccc(Nc3ncnc4ccc(-c5ccc(CNCc6cccnc6)o5)cc34)cc2)cc1
- IC50 (EGFR (human) [11]): 200 nM

SMILES: O[C@H]1CC[C@H](Nc2ncc3ncnc(Nc4ccc5c(c4)-c4ccccc4C5)c3n2)CC1
- IC50 (EGFR (murine) [12]): > 10000 nM

SMILES: Cc1cc(C)c(N2CCN(C)CC2)c(C)c1-c1nc(-c2ccncc2)c(-c2ccc(Cl)cc2)[nH]1
- IC50 (EGFR [8]): 50 nM

SMILES: N#C/C(=C\c1ccc(O)c(O)c1)C(=O)NCCCCc1ccccc1
- IC50 (EGFR [10]): 5000 nM

SMILES: Cn1ccc2cc3c(Nc4cccc(Br)c4)ncnc3cc21
- IC50 (EGFR [13]): 0.5 nM

SMILES: Cn1c(=O)c(-c2c(Cl)cccc2Cl)cc2cnc(Nc3cccc(Br)c3)nc21
- IC50 (EGFR (human) [5]): 308 nM

SMILES: O=C(CNS(=O)(=O)c1ccc(CNC(=O)c2ccc(Cl)cc2)s1)NCCNc1ncc(C(F)(F)F)cc1Cl
- IC50 (MAPK14 [14]): > 30000 nM
- IC50 (MAPK14 [15]): > 30000 nM

SMILES: O=C(O)Cc1c(SSc2[nH]c3ccccc3c2CC(=O)O)[nH]c2ccccc12
- IC50 (EGFR (mouse) [7]): > 50000 nM

SMILES: C=CC(=O)Nc1ccc2ncnc(Nc3ccc(OCc4ccccc4)cc3)c2c1
- activity (EGFR (human) [6]): 0%

SMILES: CC(C)N(CCC(=O)c1ccc2ccccc2c1)Cc1ccccc1
- IC50 (EGFR [16]): 3130 nM

SMILES: CCn1cnc2c(Nc3cccc(Cl)c3)nc(N[C@H]3CC[C@@H](N)CC3)nc21
- IC50 (EGFR [17]): 5300 nM

SMILES: CC(C)S(=O)(=O)c1csc(NC(=O)Nc2ccc(C(C)(C)C)cc2)c1Cl
- IC50 (EGFR (murine) [18]): > 100000 nM

SMILES: Cc1cccc(Nc2cc(Nc3cccc(N(C)C)c3OCCO)ncn2)c1
- IC50 (EGFR [13]): 1 nM

SMILES: Nc1c2c(nc3ccccc13)-c1cccnc1CC2
- cell viability (EGFR (human) [19]): > 90%

SMILES: NC(=O)c1ccccc1NC(=O)Nc1ccc(Cl)c(Cl)c1
- IC50 (MAPK14 [20]): 100 nM

SMILES: Cn1cnc2c(NCc3ccccc3)nc(NCCO)nc21
- IC50 (MAPK14 [21]): 30000 nM

SMILES: Cc1ccc(Sc2ccc3c(-c4c(Cl)cccc4Cl)c(=O)ncn3n2)cc1
- IC50 (MAPK14 (human) [22]): 350 nM
- IC50 (MAPK14 (human) [23]): 870 nM

SMILES: Cc1cc(C(=O)N2CCOCC2)[nH]c1/C=C1/C(=O)Nc2ncnc(Nc3cccc4c3CCC4)c21
- IC50 (EGFR [24]): 377 nM

SMILES: Brc1cccc(Nc2ncnc3cc4c(cc23)OCCO4)c1
- IC50 (EGFR [25]): 0.006 nM

SMILES: Cc1nc2cc3nc(-c4ccccc4)[nH]c3cc2nc1C
- IC50 (EGFR (mouse) [26]): > 10000 nM

SMILES: Cc1cccc(Sc2ccc3c(-c4c(Cl)cccc4Cl)c(=O)ncn3n2)c1
- IC50 (MAPK14 (human) [22]): 210 nM
- IC50 (MAPK14 (human) [23]): 280 nM

SMILES: O=C(O)C[C@@H](NC(=O)c1ccc2c(c1)OCc1cnccc1-2)c1ccccc1
- IC50 (ROCK2 (human)): 516 nM

SMILES: [N-]=[N+]=Nc1cccc(-c2ncn(CCCNC(=O)c3ccc(I)cc3)c2-c2ccncc2)c1
- IC50 (MAPK14 [27]): 46 nM

SMILES: COc1cccc([C@@H](C)NC(=O)c2ccc3c(c2)oc2c(C)nccc23)c1
- IC50 (ROCK2 (human)): 2.66 nM

SMILES: C=CC(=O)c1ccc2ccccc2c1
- IC50 (EGFR [16]): 12500 nM
